Results on one compound are retold here after article PMC5218480 (PLoS ONE, 2017).

This assay deals with MV-4-11 cells. Briefly: Gene expression microarray analysis (Affymetrix PrimeView) and GSEA. It is filed as cell-based, human. On the set-up: RFU PODN (11730768_x_at) / Fold change /veh PODN (11730768_x_at) / RFU LINC00158 (11744669_a_at) / Fold change /veh LINC00158 (11744669_a_at) / RFU DUSP10 (11751237_a_at) / Fold change /veh DUSP10 (11751237_a_at) / RFU ID3 (11757404_x_at) / Fold change /veh ID3 (11757404_x_at) / RFU PLEKHG5 (11737974_s_at) / Fold change /veh PLEKHG5 (11737974_s_at) / RFU LRRC4B (11730491_at) / Fold change /veh LRRC4B (11730491_at) / RFU GIMAP4 (11747438_a_at) / Fold change /veh GIMAP4 (11747438_a_at) / RFU KRT8 (11758183_x_at) / Fold change /veh KRT8 (11758183_x_at) / RFU CNN1 (11734310_a_at) / Fold change /veh CNN1 (11734310_a_at) / RFU VPS37D (11726825_at) / Fold change /veh VPS37D (11726825_at) / RFU C10orf10 (11716522_x_at) / Fold change /veh C10orf10 (11716522_x_at) / RFU KIR2DL2 /// KIR2DL4 /// KIR2DL5A /// KIR2DL5B /// KIR2DS1 /// KIR2DS2 /// KIR2DS3 /// KIR2DS4 /// KIR3DL3 /// KIR3DL3 /// KIR3DS1 (11738374_at) / Fold change /veh KIR2DL2 /// KIR2DL4 /// KIR2DL5A /// KIR2DL5B /// KIR2DS1 /// KIR2DS2 /// KIR2DS3 /// KIR2DS4 /// KIR3DL3 /// KIR3DL3 /// KIR3DS1 (11738374_at) / RFU C1QL1 (11718748_at) / Fold change /veh C1QL1 (11718748_at) / RFU TMPRSS4 (11747572_a_at) / Fold change /veh TMPRSS4 (11747572_a_at) / RFU HAMP (11756126_x_at) / Fold change /veh HAMP (11756126_x_at) / RFU RNFT2 (11725882_a_at) / Fold change /veh RNFT2 (11725882_a_at) / RFU NR4A2 (11747474_a_at) / Fold change /veh NR4A2 (11747474_a_at) / RFU ABCC12 (11746883_a_at) / Fold change /veh ABCC12 (11746883_a_at) / RFU TMEM136 (11760407_x_at) / Fold change /veh TMEM136 (11760407_x_at) / RFU CLDN22 /// WWC2 (11732394_at) / Fold change /veh CLDN22 /// WWC2 (11732394_at) / RFU HLA-DPB1 (11760878_x_at) / Fold change /veh HLA-DPB1 (11760878_x_at) / RFU SPINT1 (11716480_a_at) / Fold change /veh SPINT1 (11716480_a_at) / RFU GAP43 (11754022_s_at) / Fold change /veh GAP43 (11754022_s_at) / RFU A4GNT (11735810_at) / Fold change /veh A4GNT (11735810_at) / RFU PRB3 (11715151_x_at) / Fold change /veh PRB3 (11715151_x_at) / RFU TUBB4B (11761932_at) / Fold change /veh TUBB4B (11761932_at) / RFU CAPN14 (11732068_a_at) / Fold change /veh CAPN14 (11732068_a_at) / RFU TMCC2 (11721928_a_at) / Fold change /veh TMCC2 (11721928_a_at) / RFU IRGQ (11745062_a_at) / Fold change /veh IRGQ (11745062_a_at) / RFU FAM174B (11720279_a_at) / Fold change /veh FAM174B (11720279_a_at) / RFU TMPRSS4 (11748680_a_at) / Fold change /veh TMPRSS4 (11748680_a_at) / RFU FAM212B (11763350_a_at) / Fold change /veh FAM212B (11763350_a_at) / RFU PLEKHG5 (11743358_a_at) / Fold change /veh PLEKHG5 (11743358_a_at) / RFU ZSCAN30 (11745921_a_at) / Fold change /veh ZSCAN30 (11745921_a_at) / RFU CMKLR1 (11741424_a_at) / Fold change /veh CMKLR1 (11741424_a_at) / RFU LOC101060620 /// MAPK8IP1 (11723275_at) / Fold change /veh LOC101060620 /// MAPK8IP1 (11723275_at) / RFU SPTSSB (11747773_x_at) / Fold change /veh SPTSSB (11747773_x_at) / RFU PRSS12 (11739890_at) / Fold change /veh PRSS12 (11739890_at) / RFU BIN1 (11741810_x_at) / Fold change /veh BIN1 (11741810_x_at) / RFU WNT11 (11732464_a_at) / Fold change /veh WNT11 (11732464_a_at) / RFU C10orf10 (11716521_a_at) / Fold change /veh C10orf10 (11716521_a_at) / RFU C5orf56 (11738089_at) / Fold change /veh C5orf56 (11738089_at) / RFU CYB561 (11721691_x_at) / Fold change /veh CYB561 (11721691_x_at) / RFU ANKRD19P (11752326_a_at) / Fold change /veh ANKRD19P (11752326_a_at) / RFU OR2T12 /// OR2T33 /// OR2T8 (11738714_s_at) / Fold change /veh OR2T12 /// OR2T33 /// OR2T8 (11738714_s_at) / RFU VCAN (11748164_a_at) / Fold change /veh VCAN (11748164_a_at) / RFU JSRP1 (11732532_at) / Fold change /veh JSRP1 (11732532_at) / RFU KRTAP10-11 (11738290_x_at) / Fold change /veh KRTAP10-11 (11738290_x_at) / RFU MYO3A (11730013_a_at) / Fold change /veh MYO3A (11730013_a_at) / RFU EBF3 (11725865_a_at) / Fold change /veh EBF3 (11725865_a_at) / RFU CAMK2N1 (11719241_x_at) / Fold change /veh CAMK2N1 (11719241_x_at) / RFU C5orf56 (11738088_a_at) / Fold change /veh C5orf56 (11738088_a_at) / RFU OLFML3 (11715873_a_at) / Fold change /veh OLFML3 (11715873_a_at) / RFU LOC100653217 /// NTM (11731650_a_at) / Fold change /veh LOC100653217 /// NTM (11731650_a_at) / RFU MAPK11 (11762145_a_at) / Fold change /veh MAPK11 (11762145_a_at) / RFU FIZ1 (11724087_x_at) / Fold change /veh FIZ1 (11724087_x_at) / RFU OASL (11726364_x_at) / Fold change /veh OASL (11726364_x_at) / RFU SOX15 (11748057_x_at) / Fold change /veh SOX15 (11748057_x_at) / RFU CD79A (11719716_a_at) / Fold change /veh CD79A (11719716_a_at) / RFU HIST1H1D (11736915_at) / Fold change /veh HIST1H1D (11736915_at) / RFU CASKIN2 (11723855_a_at) / Fold change /veh CASKIN2 (11723855_a_at) / RFU LOC730098 (11760151_x_at) / Fold change /veh LOC730098 (11760151_x_at) / RFU OR4N2 (11742367_at) / Fold change /veh OR4N2 (11742367_at) / RFU PRRT2 (11749266_a_at) / Fold change /veh PRRT2 (11749266_a_at) / RFU SNX32 (11753110_a_at) / Fold change /veh SNX32 (11753110_a_at) / RFU CDHR5 (11726645_a_at) / Fold change /veh CDHR5 (11726645_a_at) / RFU RCAN1 (11760418_a_at) / Fold change /veh RCAN1 (11760418_a_at) / RFU FAM167A (11723789_a_at) / Fold change /veh FAM167A (11723789_a_at) / RFU FAM26E (11764081_at) / Fold change /veh FAM26E (11764081_at) / RFU ISYNA1 (11749810_s_at) / Fold change /veh ISYNA1 (11749810_s_at) / RFU ACY1 (11761880_at) / Fold change /veh ACY1 (11761880_at) / RFU 11764098_at / Fold change /veh 11764098_at / RFU SAMD14 (11745864_x_at) / Fold change /veh SAMD14 (11745864_x_at) / RFU NPB (11741838_a_at) / Fold change /veh NPB (11741838_a_at) / RFU TMPRSS6 (11731388_a_at) / Fold change /veh TMPRSS6 (11731388_a_at) / RFU KRTAP10-2 (11738614_at) / Fold change /veh KRTAP10-2 (11738614_at) / RFU ARHGAP8 /// PRR5-ARHGAP8 (11727945_x_at) / Fold change /veh ARHGAP8 /// PRR5-ARHGAP8 (11727945_x_at) / RFU KRTAP5-7 /// NADSYN1 (11734609_at) / Fold change /veh KRTAP5-7 /// NADSYN1 (11734609_at) / RFU RASL12 (11751679_a_at) / Fold change /veh RASL12 (11751679_a_at) / RFU CDKN2B (11736163_a_at) / Fold change /veh CDKN2B (11736163_a_at) / RFU PRF1 (11729649_at) / Fold change /veh PRF1 (11729649_at) / RFU, ZNF638 /// ZNF638-IT1 / Fold change vs veh, ZNF638 /// ZNF638-IT1 / RFU, PANK3 / Fold change vs veh, PANK3 / RFU, SH3YL1 / Fold change vs veh, SH3YL1 / RFU, ZEB2 / Fold change vs veh, ZEB2 / RFU, NRIP1 / Fold change vs veh, NRIP1 / RFU, PTTG1IP / Fold change vs veh, PTTG1IP / RFU, CAPN2 / Fold change vs veh, CAPN2 / RFU, MED14 / Fold change vs veh, MED14 / RFU, SNORA58 / Fold change vs veh, SNORA58 / RFU, C1orf63 / Fold change vs veh, C1orf63 / RFU, LRRFIP1 / Fold change vs veh, LRRFIP1 / RFU, NDUFAF7 / Fold change vs veh, NDUFAF7 / RFU, SLC12A2 / Fold change vs veh, SLC12A2 / RFU, IBTK / Fold change vs veh, IBTK / RFU, ESF1 / Fold change vs veh, ESF1 / Fold change vs veh, TMEM50B / RFU, TAOK1 / Fold change vs veh, TAOK1 / RFU, ACBD3 / Fold change vs veh, ACBD3 / RFU, TMA16 / Fold change vs veh, TMA16 / RFU, RWDD3 / Fold change vs veh, RWDD3 / RFU, BCAT1 / Fold change vs veh, BCAT1 / RFU, EDEM3 / Fold change vs veh, EDEM3 / RFU, TMEM33 / Fold change vs veh, TMEM33 / RFU, WDR75 / Fold change vs veh, WDR75 / RFU, AHCTF1 / Fold change vs veh, AHCTF1 / RFU, TFRC / Fold change vs veh, TFRC / RFU, ZDHHC17 / Fold change vs veh, ZDHHC17 / RFU, NOM1 / Fold change vs veh, NOM1 / RFU, ARL8B / Fold change vs veh, ARL8B / RFU, ZBTB11 / Fold change vs veh, ZBTB11 / RFU, TAMM41 / Fold change vs veh, TAMM41 / RFU, KIAA1704 /// LOC100996395 / Fold change vs veh, KIAA1704 /// LOC100996395 / RFU, ING1 / Fold change vs veh, ING1 / RFU, TRMT61B / Fold change vs veh, TRMT61B / RFU, FUBP3 / Fold change vs veh, FUBP3 / RFU, TP53 / Fold change vs veh, TP53 / RFU, TNKS2 / Fold change vs veh, TNKS2 / RFU, ZFP14 / Fold change vs veh, ZFP14 / RFU, ACTR2 / Fold change vs veh, ACTR2 / RFU, PPP3R1 / Fold change vs veh, PPP3R1 / RFU, PIK3R1 / Fold change vs veh, PIK3R1 / RFU, HNRNPA1 / Fold change vs veh, HNRNPA1 / RFU, RNF170 / Fold change vs veh, RNF170 / RFU, ZNF28 / Fold change vs veh, ZNF28 / RFU, RNGTT / Fold change vs veh, RNGTT / RFU, OGT / Fold change vs veh, OGT / RFU, BRD1 / Fold change vs veh, BRD1 / RFU, MARS / Fold change vs veh, MARS / RFU, ZNF655 / Fold change vs veh, ZNF655 / RFU, FAHD1 / Fold change vs veh, FAHD1 / RFU, BDP1 / Fold change vs veh, BDP1 / RFU, LRRCC1 / Fold change vs veh, LRRCC1 / RFU, ARID1A / Fold change vs veh, ARID1A / RFU, ZNF146 / Fold change vs veh, ZNF146 / RFU, ZNF330 / Fold change vs veh, ZNF330 / RFU, GPN3 / Fold change vs veh, GPN3 / RFU, C9orf123 / Fold change vs veh, C9orf123 / RFU, N4BP2L2 / Fold change vs veh, N4BP2L2 / RFU, ARFIP1 / Fold change vs veh, ARFIP1 / RFU, FAM179B / Fold change vs veh, FAM179B / RFU, BCL10 / Fold change vs veh, BCL10 / RFU, UHRF1BP1L / Fold change vs veh, UHRF1BP1L / RFU, BET1 / Fold change vs veh, BET1 / RFU, CNOT2 / Fold change vs veh, CNOT2 / RFU, ZNF268 / Fold change vs veh, ZNF268 / Fold change vs veh, ZNF507 / RFU, DGCR2 / Fold change vs veh, DGCR2 / RFU, WDSUB1 / Fold change vs veh, WDSUB1 / Fold change vs veh, HSP90B1 /// MIR3652 / RFU, ADSS / Fold change vs veh, ADSS / RFU, GK / Fold change vs veh, GK / RFU, ZNF148 / Fold change vs veh, ZNF148 / RFU, TAF9 / Fold change vs veh, TAF9 / RFU, SLC1A5 / Fold change vs veh, SLC1A5 / RFU, SLMO2 / Fold change vs veh, SLMO2 / RFU, ABCC4 / Fold change vs veh, ABCC4 / RFU, LOC101060439 /// RAP1B / Fold change vs veh, LOC101060439 /// RAP1B / RFU, RFX7 / Fold change vs veh, RFX7 / RFU, GTPBP10 / Fold change vs veh, GTPBP10 / RFU, CNEP1R1 / Fold change vs veh, CNEP1R1 / RFU, BIVM-ERCC5 /// ERCC5 / Fold change vs veh, BIVM-ERCC5 /// ERCC5 / RFU, ILF3 / Fold change vs veh, ILF3 / RFU 11762660_at / Fold change /veh 11762660_at / RFU VCAN (11757783_s_at) / Fold change /veh VCAN (11757783_s_at) / RFU DDX43 (11728927_at) / Fold change /veh DDX43 (11728927_at) / RFU KRT8 (11758188_x_at) / Fold change /veh KRT8 (11758188_x_at) / RFU NKD1 (11759106_at) / Fold change /veh NKD1 (11759106_at) / RFU SRD5A1 (11742802_a_at) / Fold change /veh SRD5A1 (11742802_a_at) / RFU TPSAB1 /// TPSB2 (11721975_s_at) / Fold change /veh TPSAB1 /// TPSB2 (11721975_s_at) / RFU GSTM3 (11746129_a_at) / Fold change /veh GSTM3 (11746129_a_at) / RFU IL23R (11737362_x_at) / Fold change /veh IL23R (11737362_x_at) / RFU TMEM51 (11727254_a_at) / Fold change /veh TMEM51 (11727254_a_at) / RFU PIWIL2 (11732686_x_at) / Fold change /veh PIWIL2 (11732686_x_at) / RFU ORM1 (11744905_x_at) / Fold change /veh ORM1 (11744905_x_at) / RFU CCDC152 (11743942_at) / Fold change /veh CCDC152 (11743942_at) / RFU ECM1 (11717891_a_at) / Fold change /veh ECM1 (11717891_a_at) / RFU IL23R (11748794_a_at) / Fold change /veh IL23R (11748794_a_at) / RFU TNFAIP8L3 (11732012_x_at) / Fold change /veh TNFAIP8L3 (11732012_x_at) / RFU MBOAT4 (11741988_at) / Fold change /veh MBOAT4 (11741988_at) / RFU 11764193_at / Fold change /veh 11764193_at / RFU TMEM53 (11763286_at) / Fold change /veh TMEM53 (11763286_at) / RFU MAGEB2 (11727129_at) / Fold change /veh MAGEB2 (11727129_at) / RFU TMEM200A (11744735_a_at) / Fold change /veh TMEM200A (11744735_a_at) / RFU CCDC152 (11751479_a_at) / Fold change /veh CCDC152 (11751479_a_at) / RFU FAM211A (11726209_a_at) / Fold change /veh FAM211A (11726209_a_at) / RFU RGS16 (11746705_a_at) / Fold change /veh RGS16 (11746705_a_at) / RFU VCAN (11755009_s_at) / Fold change /veh VCAN (11755009_s_at) / RFU RHOB (11743442_s_at) / Fold change /veh RHOB (11743442_s_at) / RFU RGS16 (11720943_a_at) / Fold change /veh RGS16 (11720943_a_at) / RFU RGS16 (11720944_at) / Fold change /veh RGS16 (11720944_at) / RFU, VPS4B / Fold change vs veh, VPS4B / RFU, CREB1 / Fold change vs veh, CREB1 / RFU, DNAJC13 / Fold change vs veh, DNAJC13 / RFU, GNAQ / Fold change vs veh, GNAQ / RFU, CDK5R1 / Fold change vs veh, CDK5R1 / RFU, ZRANB3 / Fold change vs veh, ZRANB3 / RFU, CUL4A / Fold change vs veh, CUL4A / RFU, CCNY / Fold change vs veh, CCNY / RFU, UFL1 / Fold change vs veh, UFL1 / RFU, COG3 / Fold change vs veh, COG3 / RFU, DIAPH2 / Fold change vs veh, DIAPH2 / RFU, SKA2 / Fold change vs veh, SKA2 / RFU, AFF3 / Fold change vs veh, AFF3 / RFU, LMF1 / Fold change vs veh, LMF1 / RFU, IPO11 / Fold change vs veh, IPO11 / RFU, DFFB / Fold change vs veh, DFFB / RFU, FOXP1 / Fold change vs veh, FOXP1 / RFU, CARD8 / Fold change vs veh, CARD8 / RFU, STRN3 / Fold change vs veh, STRN3 / RFU, ADK / Fold change vs veh, ADK / RFU, RASSF2 / Fold change vs veh, RASSF2 / RFU, WIPF1 / Fold change vs veh, WIPF1 / RFU, LARP1B / Fold change vs veh, LARP1B / RFU, RASA1 / Fold change vs veh, RASA1 / RFU, RB1 / Fold change vs veh, RB1 / RFU, PPFIA1 / Fold change vs veh, PPFIA1 / RFU, MAT2A / Fold change vs veh, MAT2A / RFU, CCT5 / Fold change vs veh, CCT5 / RFU, WDR92 / Fold change vs veh, WDR92 / RFU, CUX1 / Fold change vs veh, CUX1 / RFU, TTC7A / Fold change vs veh, TTC7A / RFU, TMEM135 / Fold change vs veh, TMEM135 / RFU, DEPTOR / Fold change vs veh, DEPTOR / RFU, CPM / Fold change vs veh, CPM / RFU, DNAJB6 / Fold change vs veh, DNAJB6 / RFU, CACNA2D3 / Fold change vs veh, CACNA2D3 / RFU, DTX4 / Fold change vs veh, DTX4 / RFU, TFCP2 / Fold change vs veh, TFCP2 / RFU, GMCL1 /// GMCL1P1 / Fold change vs veh, GMCL1 /// GMCL1P1 / RFU, AEBP2 / Fold change vs veh, AEBP2 / RFU, SNHG1 /// SNORD22 /// SNORD25 /// SNORD26 /// SNORD27 /// SNORD28 /// SNORD29 /// SNORD31 / Fold change vs veh, SNHG1 /// SNORD22 /// SNORD25 /// SNORD26 /// SNORD27 /// SNORD28 /// SNORD29 /// SNORD31 / Fold change (Aza/veh), C12orf56 (ProbeSet 11735607_a_at) / Fold change (ACY-1035/veh), C12orf56 (ProbeSet 11735607_a_at) / Fold change (Aza/veh), FGFR1OP (ProbeSet 11751329_s_at) / Fold change (ACY-1035/veh), FGFR1OP (ProbeSet 11751329_s_at) / Fold change (Aza/veh), VPS36 (ProbeSet 11739960_a_at) / Fold change (ACY-1035/veh), VPS36 (ProbeSet 11739960_a_at) / RFU SYPL1 (11715823_x_at) / Fold change /veh SYPL1 (11715823_x_at) / RFU IGFBP7 (11715501_s_at) / Fold change /veh IGFBP7 (11715501_s_at) / RFU REEP3 (11722064_at) / Fold change /veh REEP3 (11722064_at) / RFU IGLL1 (11728026_x_at) / Fold change /veh IGLL1 (11728026_x_at): dose or concentration left out as unconfirmed. The conditions noted are these: ProbeSet 11732165_x_at; LIST D.

For the compound `Nc1ccc(-c2cccs2)cc1NC(=O)c1ccc2c(c1)cc(C1CC1)n2CCN1CCOCC1` [ACY-1035], the “RFU, LMF1” value was 59.92 RFU.
